Assay [1] has as its target T1, GPR17 (Homo sapiens, UniProt Q13304). Nature of the assay: cAMP accumulation functional assay (HTRF, Schild analysis). The settings on record: CHO hGPR17 cells, Schild analysis vs MDL29,951, 5 μM forskolin, read-out: cAMP assay pA2 (converted). Further details: host or cells: Flp-In T-REx CHO. In kind it is cell-based. The essentials:
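Antagonist affinity (pA2) came from Schild plots of dose ratios, based on MDL29,951 concentration-response curves fitted by 4-parameter logistic. The read-out was HTRF cAMP in 5,000 doxycycline-induced CHO hGPR17 cells per well, with 30 min compound preincubation and 60 min stimulation, at room temperature in pH 7.4 buffer.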
For orientation: Changes in cAMP serve as a functional read-out for many G protein-coupled receptors.

The target in assay [2] is T1, GPR17. Nature of the assay: Calcium mobilization functional assay (GPR17 Ca2+ assay). Set-up: host or cells: Flp-In T-REx CHO. The settings on record: CHO hGPR17 cells, inhibition of 50 nM MDL29,951, Calcium 5 dye, FLIPR; read-out: Ca2+ assay pIC50 (converted). In kind it is cell-based. An outline of the steps: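 pIC50 values were fitted with a 4-parameter logistic curve. They reflect test-compound inhibition of cytosolic Ca2+ release evoked by 50 nM MDL29,951, tracked as Calcium 5 fluorescence at room temperature. Cells were CHO Flp-In T-REx stably carrying human GPR17, induced with doxycycline 1 μg/mL for 16-20 h.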
On the technique in general: Calcium assays in cells follow changes in intracellular calcium, usually with a dye or a luminescent sensor.

T1 sequence (Q13304 whole entry): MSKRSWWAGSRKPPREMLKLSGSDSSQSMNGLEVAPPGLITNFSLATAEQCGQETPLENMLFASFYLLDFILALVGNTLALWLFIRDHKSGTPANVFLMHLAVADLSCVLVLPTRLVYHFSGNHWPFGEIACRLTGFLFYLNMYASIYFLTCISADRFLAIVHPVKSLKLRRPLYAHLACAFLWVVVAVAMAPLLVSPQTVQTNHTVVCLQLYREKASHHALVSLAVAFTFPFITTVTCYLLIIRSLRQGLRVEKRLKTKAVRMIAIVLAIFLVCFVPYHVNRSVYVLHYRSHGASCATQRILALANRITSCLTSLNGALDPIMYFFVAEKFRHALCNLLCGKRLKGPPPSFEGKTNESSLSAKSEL

`N#Cc1ccc(NS(=O)(=O)c2c[nH]c3cc(-c4ccsc4)ccc23)c(F)c1` [Compound I-230, N-(4-cyano-2-fluorophenyl)-6-(thiophen-3-yl)-1H-indole-3-sulfonamide]: the Kb on GPR17 [1] is 3.16 to 31.6 nM. Moreover, on GPR17 [2], the IC50 was 3.16 to 31.6 nM.
Consider `N#Cc1ccc(NS(=O)(=O)c2c[nH]c3cc(-c4ccccc4)ccc23)c(F)c1` [Compound I-233, N-(4-cyano-2-fluorophenyl)-6-phenyl-1H-indole-3-sulfonamide], for which the Kb on GPR17 [1] is greater than 31.6 nM. For the same compound, the IC50 on GPR17 [2] is 3.16 to 31.6 nM.
For `N#Cc1ccc(NS(=O)(=O)c2c[nH]c3cc(-c4cccs4)ccc23)c(F)c1` [Compound I-235, N-(4-cyano-2-fluorophenyl)-6-(thiophen-2-yl)-1H-indole-3-sulfonamide], the Kb on GPR17 [1] was less than 3.16 nM. Besides, at GPR17 [2], the IC50 was 3.16 to 31.6 nM.
For `O=S(=O)(Nc1cc(F)c(Cl)cc1F)c1c[nH]c2cc(-c3ccsc3)ccc12` [Compound I-236, N-(4-chloro-2,5-difluorophenyl)-6-(thiophen-3-yl)-1H-indole-3-sulfonamide], the Kb at GPR17 [1] was greater than 31.6 nM. Moreover, the IC50 on GPR17 [2] was greater than 31.6 nM.
For `C[S+]([O-])c1ccc2c(S(=O)(=O)Nc3ccc(C#N)cc3)c[nH]c2c1` (stereo not shown) [Compound I-237, N-(4-cyanophenyl)-6-(methylsulfinyl)-1H-indole-3-sulfonamide], the Kb on GPR17 [1] was greater than 31.6 nM. The IC50 at GPR17 [2] is greater than 31.6 nM.
Regarding `CS(=O)(=O)c1ccc2c(S(=O)(=O)Nc3cc4c(cc3F)OC(F)(F)O4)c[nH]c2c1` [Compound I-238, 6-(methylsulfonyl)-N-(2,2,6-trifluoro-1,3-benzodioxol-5-yl)-1H-indole-3-sulfonamide], at GPR17 [1], the Kb is 3.16 to 31.6 nM. For the same compound, the IC50 on GPR17 [2] was 3.16 to 31.6 nM.
As to `CS(=O)(=O)c1ccc2c(S(=O)(=O)Nc3cc(F)c(F)cc3F)c[nH]c2c1` [Compound I-239, 6-methylsulfonyl-N-(2,4,5-trifluorophenyl)-1H-indole-3-sulfonamide], at GPR17 [1], the Kb was greater than 31.6 nM. At GPR17 [2], the IC50 was greater than 31.6 nM.
`CS(=O)(=O)c1ccc2c(S(=O)(=O)Nc3cccc4c3OC(F)(F)O4)c[nH]c2c1` [Compound I-240, N-(2,2-difluoro-1,3-benzodioxol-4-yl)-6-methylsulfonyl-1H-indole-3-sulfonamide]: the Kb at GPR17 [1] is greater than 31.6 nM. Also, the IC50 on GPR17 [2] was greater than 31.6 nM.
In the case of `[N-]=[N+]=Nc1ccc(NS(=O)(=O)c2c[nH]c3cc(Cl)ccc23)c(F)c1` [Compound I-241, N-(4-azido-2-fluorophenyl)-6-chloro-1H-indole-3-sulfonamide], at GPR17 [1], the Kb was 3.16 to 31.6 nM. Further, the IC50 at GPR17 [2] was 3.16 to 31.6 nM.
In the case of `O=S(=O)(Nc1cc(F)c(Cl)cc1F)c1c[nH]c2c(F)c(Cl)ccc12` [Compound I-242, 6-chloro-N-(4-chloro-2,5-difluorophenyl)-7-fluoro-1H-indole-3-sulfonamide], the Kb on GPR17 [1] is less than 3.16 nM. Further, the IC50 at GPR17 [2] was 3.16 to 31.6 nM.
The matching figures for `O=C1OCc2cc(F)c(NS(=O)(=O)c3c[nH]c4cc(Cl)ccc34)cc21` [Compound I-243, 6-chloro-N-(6-fluoro-3-oxo-1,3-dihydro-2-benzofuran-5-yl)-1H-indole-3-sulfonamide]: 3.16 to 31.6 nM and 3.16 to 31.6 nM.
In the case of `COc1c(Cl)ccc2c(S(=O)(=O)Nc3cc(F)c(Cl)cc3F)c[nH]c12` [Compound I-244, 6-chloro-N-(4-chloro-2,5-difluorophenyl)-7-methoxy-1H-indole-3-sulfonamide], the Kb at GPR17 [1] is less than 3.16 nM. Besides, at GPR17 [2], the IC50 was 3.16 to 31.6 nM.
On the same counts, the results for `O=S(=O)(Nc1nc(F)c(Br)cc1F)c1c[nH]c2cc(Cl)ccc12` [Compound I-245, N-(5-bromo-3,6-difluoropyridin-2-yl)-6-chloro-1H-indole-3-sulfonamide] are less than 3.16 nM and less than 3.16 nM.
In the case of `O=S(=O)(Nc1cc(F)c(OCC(F)F)cc1F)c1c[nH]c2cc(Cl)ccc12` [Compound I-246, 6-chloro-N-[4-(2,2-difluoroethoxy)-2,5-difluorophenyl]-1H-indole-3-sulfonamide], the Kb on GPR17 [1] was less than 3.16 nM. For the same compound, the IC50 at GPR17 [2] was less than 3.16 nM.
